According to PubChem BioAssay AID179 (DTP/NCI, 2004):
Active and inactive are the calls of the source.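 Rule for the calls: active = compounds giving half or more protection of infected cells from virus-caused growth loss, again on retest; inactive = the rest.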 Where a SMILES comes first, the peptide text is derived from it. The star is where a group is joined. X11 = Clc1c(Cl)c(Cl)c(O*)c(Cl)c1Cl; Cbz = O=C(OCc1ccccc1)*; Boc = CC(C)(C)OC(=O)*; OBn = c1ccc(CO*)cc1; Bn = c1ccc(C*)cc1

System: CEM cells HIV-1 protection, formazan growth assay
Assay: NCI AIDS Antiviral Assay
Conditions: for IC50: measured here: growth of uninfected CEM cells
Method in brief: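 Protection of CEM cells against HIV-1 was scored from cell growth (soluble formazan) across five concentrations, with parallel uninfected cells. Lack of protection may reflect toxicity.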

| SMILES | EC50 [µM] | IC50 [µM] | outcome |
| --- | --- | --- | --- |
| CC(C)N1C(=O)NC2C1NC(=O)N2C(C)C (stereo not drawn) (tested in a mixture with another compound) | > 200 | > 200 | – |
| COc1cc2c(c3c1C1Oc4cc(OCc5ccccc5)c(O)cc4C1C(C)(C)O3)CCC(C)(C)O2 (stereo not drawn) | > 200 | 36.3 | – |
| COc1ccccc1C(=O)c1c(NCc2ccccc2)c(=O)c1=O | > 200 | 93.3 | – |
| CNC(=S)SSSSC(=S)NC | – | – | inactive |
| N/N=C(/Cc1nc2ccc(C(=O)c3ccccc3)cc2[nH]c1=O)C(=O)Nc1ccc([N+](=O)[O-])cc1[N+](=O)[O-] | > 50.1 | > 50.1 | – |
| COCCNC1CCC(=O)c2[nH]c3ccccc3c21 (stereo not drawn) | > 200 | > 200 | – |
| O=c1cc(-c2ccccc2)oc2ccc(O)cc12 | > 200 | 67.6 | – |
| CSC1=C(C(=O)Nc2ccccc2)C(N)=NC1=O | > 200 | 141 | – |
| COc1c2occc2c(N)c2ccc(=O)oc12 | > 95.5 | > 95.5 | – |
| CCOC(C)C(=O)OC[C@@H](C(=O)OC1C[C@@H]2[C@@H]3O[C@@H]3[C@H](C1)[N+]2(C)C)c1ccccc1 (stereo partly drawn) | > 200 | > 200 | – |
| CC(=O)OCc1cccc(O)c1C(=O)CCC=C(C)C | > 200 | 148 | – |
| Cc1cc2c(c(C=NCc3ccccc3)c1)OC1(C=C2)Oc2ccccc2C(=O)N1C (stereo not drawn) | > 200 | 52.5 | – |
| CCCCC(C(=O)C(=O)Nc1ccc(C)cc1C)C(=O)C(C)C (stereo not drawn) | > 794 | > 794 | – |
| CC1=CC2=C(OCO1)C(=O)c1ccccc1C2=O | – | – | inactive |
| NC(=O)NNC(=O)c1nc[nH]c1[N+](=O)[O-] | > 200 | > 200 | – |
| CCc1cccc(C(C)C)c1NC(=O)C(=O)C(Cc1nc2ccccc2[nH]c1=O)C(=O)OC (stereo not drawn) | > 112 | > 112 | – |
| CCC[CH2][Sn]1([CH2]CCC)[O]CC(CN2CCCCC2)[O]1 (stereo not drawn) | > 9.33 | 0.0646 | – |
| CC(C)CCC[C@@H](C)C1CCC2[C@@H]3CC(OS(=O)(=O)O)C4C[C@@H](OC5OC(CO)C(O)C(O)C5O)CC[C@]4(C)C3CC[C@@]21C (stereo partly drawn) | > 37.2 | 6.03 | – |
| COCC12CC(CC1=O)C1C2ON2c3ccccc3C(=O)C12c1ccccc1 (stereo not drawn) | > 50.1 | > 50.1 | – |
| Cc1cc2nncn2c2nnnn12 | > 200 | > 200 | – |
| C/C=C1\[C@H]2C=C(C)C[C@@]1(N)c1ccc(=O)[nH]c1[C@@H]2O | > 479 | > 479 | – |
| CSc1cnnc2ccccc12 | > 603 | 263 | – |

| SMILES | EC50 [µM] | IC50 [µM] | outcome |
| --- | --- | --- | --- |
| CCN(CC)CCOc1ccc2c(c1)C(=O)c1cc(OCCN(CC)CC)ccc1-2 | > 200 | 12.3 | – |
| Cc1cccc(NC(=O)NCCOC(=O)OCCNC(=O)Nc2cccc(C)c2C)c1C | > 200 | > 200 | – |
| CC12OC3(C)OC(=O)C(c4ccccc4)(O1)C3(C)O2 (stereo not drawn) | – | – | inactive |
| CC(C)=CC[P+](CCC[P+](CC=C(C)C)(c1ccccc1)c1ccccc1)(c1ccccc1)c1ccccc1 | > 57.5 | > 57.5 | – |
| O=C1NS(=O)(=O)C2C(Cl)=C(Cl)C3(Cl)C2C13Cl (stereo not drawn) | > 776 | > 776 | – |
| CO/C=C/CCCN(CC#N)Cc1ccccc1 | > 27.5 | > 27.5 | – |
| CCN(CC)C(=O)CCn1ccc(=O)[nH]c1=O | > 1050 | > 1050 | – |
| CCc1cccc(C(C)(C)C)c1NC(=S)N/C=C(/C#N)C(N)=O | > 200 | 151 | – |
| COc1ccc(/C=C\c2cc(OC)c(OC)c(OC)c2)cc1OC(=O)C(N)CCC(=O)O (stereo not drawn) | > 447 | – | – |
| CC(C)CC(NC(=O)C(CCC(=O)OCc1ccccc1)NC(=O)OC(C)(C)C)C(=O)NC(COCc1ccccc1)C(=O)NC(Cc1ccccc1)C(=O)Oc1c(Cl)c(Cl)c(Cl)c(Cl)c1Cl (stereo not drawn) (Boc-E(OBn)LS(Bn)F-X11; configuration not given here) | > 200 | 38.9 | – |
| CCCCCC1OC1C/C=C\CCCCCCCC(=O)OCC(O)COC(=O)CCCCCCC/C=C\CC1OC1CCCCC (stereo not drawn) | > 200 | > 200 | – |
| CCCCCCc1cc(C(=O)Nc2ccc(Cl)cc2)nc(=S)[nH]1 | > 708 | 479 | – |
| COC(=O)c1cc(Cl)ccc1NC(=O)C1CCCCC1 | – | – | inactive |
| Cc1cn(C2OCC(CO)C2O)c(=O)[nH]c1=O (stereo not drawn) | > 200 | > 200 | – |
| COc1ccc(C(Nc2nc3c(ncn3COCCOP(=O)(OCOC(=O)C(C)(C)C)OCOC(=O)C(C)(C)C)c(=O)[nH]2)(c2ccccc2)c2ccccc2)cc1 | > 100 | 8.71 | – |
| CCN1CCC(O)(/C=C/c2ccc(Cl)c(Cl)c2)C(C(=O)/C=C/c2ccc(Cl)c(Cl)c2)C1 (stereo not drawn) | > 25.1 | 0.513 | – |
| COC(=O)c1nc(-c2ccc(Cl)c(Cl)c2)nc2ccccc12 | – | – | inactive |
| N#Cc1c(/C=C/c2ccccc2)c2c([nH]c1=S)CCCCC2 | 339 | 501 | – |
| COC1CCC(=O)N1CC/C=C(/Br)[Si](C)(C)C (stereo not drawn) | – | – | inactive |
| O=C(NCCCCCCCCCCNC(=O)c1cc(O)c(O)c(O)c1)c1cc(O)c(O)c(O)c1 | > 100 | 9.12 | – |
| CN1C(=O)CNC(=O)c2ncn(C3OC(CO)C(O)C3O)c21 (stereo not drawn) | > 229 | > 229 | – |
| Cc1nccn1Cc1c(N)nc(N)[nH]c1=O | > 200 | > 200 | – |

| SMILES | EC50 [µM] | IC50 [µM] | outcome |
| --- | --- | --- | --- |
| CCC(C)C(NC(=O)CNC(=O)C(Cc1cnc[nH]1)NC(=O)C(NC(=O)C(CS)NC(=O)C(CCC(N)=O)NC(=O)C(NC(=O)C(NC(=O)C(CO)NC(=O)C(NC(=O)C(CC(N)=O)NC(=O)C(NC(=O)C(CO)NC(=O)C1CCCN1C(=O)CNC(=O)C(NC(=O)CN)C(C)O)C(C)O)C(C)C)C(C)O)C(C)C)C(C)O)C(=O)NC(CCCN=C(N)N)C(N)=O (stereo not drawn) (H-GTGPSTNVSTVQCTHGIR-NH2; configuration not given here) | > 50.1 | > 50.1 | – |
| COC1(OC)C2(Cl)CC(OC(C)=O)C1(Cl)C(Cl)=C2Cl (stereo not drawn) | > 200 | > 100 | – |
| O=C1Cc2nc(CO)c(CO)c(CO)c2CO1 | > 1050 | > 1050 | – |
| Cc1ccc(C2NC(=O)N3C(c4ccc(C)cc4)NC(=O)N23)cc1 (stereo not drawn) | > 200 | 30.2 | – |
| CC(CCc1ccccc1)NCC(O)n1c(/N=N/N(C)C)nc2c1c(=O)n(C)c(=O)n2C (stereo not drawn) | > 200 | > 200 | – |
| O=c1[nH]nc(Cc2ccccc2)n1/N=C/c1cccnc1 | 56.2 | > 200 | – |
| Nc1nccc(CC(O)(c2ccccc2)c2ccccc2)n1 | > 64.6 | > 64.6 | – |
| CCOc1ccccc1NC(=O)CC1Sc2ccccc2NC1=O (stereo not drawn) | > 55 | > 55 | – |
| O=C1NC2ON=C(c3ccccc3)C2C2ON=C(c3ccccc3)N12 (stereo not drawn) | > 200 | 37.2 | – |
| COc1ccc(C(=O)/C=C/c2ccc(OCC#N)cc2)cc1OC | > 200 | 3.31 | – |
| N.N.N.N.[Cl-].[Co+3].[N-]=[N+]=[N-].[N-]=[N+]=[N-] | – | – | inactive |
| COc1ccc(/C=c2/sc3n(c2=O)C(c2ccccc2)C2(O)CCCCC2N=3)cc1 (stereo not drawn) | > 200 | > 200 | – |
| Cc1cc(OCc2nnc3n2S(=O)(=O)c2ccccc2N3C)ccc1Cl | > 200 | > 200 | – |
| Oc1ccc(Cl)cc1-c1cc(-c2ccccc2)nc(=S)[nH]1 | > 200 | 170 | – |
| O=C(c1cc(=O)c2ccc(O)cc2o1)c1ccc(Cl)cc1Cl | > 204 | 18.6 | – |
| O=C(/C=C/c1ccc(Cl)c(Cl)c1)Oc1ccc(/C=C2\CCCCC2=O)cc1 | > 100 | 5.25 | – |
| COc1ccc(-c2cnoc2-c2ccc(OC)c(OC)c2)cc1OC | > 55 | 0.355 | – |
| N#C/C(=C\c1ccc(Cl)cc1)c1ccc(C(=O)O)cc1 | > 200 | 110 | – |
| CC(NC(=O)C(NC(=O)OCc1ccccc1)C(C)C)C(=O)NCC(=O)O (stereo not drawn) (Cbz-Val-Ala-Gly-OH; configuration not given here) | > 200 | > 200 | – |
| CC(=O)/C(=C/c1ccc(Br)cc1)C(=O)c1ccccc1 | – | – | inactive |
| Nc1ccc(C(=O)NN2C(=O)C(Cl)C2c2cc(Br)ccc2O)cc1 (stereo not drawn) | > 200 | 30.9 | – |
| COc1cc2c(cc1O)CC1c3c(cc(O)c(OC)c3-2)CCN1C (stereo not drawn) | > 200 | 69.2 | – |

| SMILES | EC50 [µM] | IC50 [µM] | outcome |
| --- | --- | --- | --- |
| CS(=O)(=O)OCCN1CCN(C(=O)c2cccc3c(Nc4ccc(S(=O)(=O)N=C(N)N)cc4)c4ccccc4nc23)CC1 | > 35.5 | > 35.5 | – |
| Cc1c2c(c(C)c3c[n+](C)ccc13)Oc1ccccc1O2 | > 20 | 3.72 | – |
| CCOC(=O)/C(CCCC#N)=N/O | > 200 | > 200 | – |
| O=C(Oc1ccc(Cl)cc1[N+](=O)[O-])c1ccccc1 | – | – | inactive |
| Cc1cccc2c1C(=O)/C(=C/c1ccccc1C(=O)O)C2 | > 200 | 123 | – |
| C1=C2CN3CCC45c6ccccc6N6CCC(OC1)C(C2CC34)C65 (stereo not drawn) | > 776 | 302 | – |
| O=S1(=O)CCN2OCC1C2c1cccc2ccccc12 (stereo not drawn) | – | – | inactive |
| COc1ccc(/C=N/NC(N)=O)cc1 | > 186 | > 186 | – |
| C/C(=N\Nc1ccc([N+](=O)[O-])cc1[N+](=O)[O-])c1ccc2ccccc2n1 | 182 | > 200 | – |
| COc1ccc(-c2csc(=Nc3ccccc3)n2CC(O)c2ccc([N+](=O)[O-])cc2)cc1 (stereo not drawn) | > 200 | 38 | – |
| CCC(C(=O)C(=O)OC)P1(=O)OC(C)(C)CN1C(C)(C)C (stereo not drawn) | > 200 | > 200 | – |
| N#CC(C#N)=C(C#N)C#N | > 200 | > 200 | – |
| COc1cc2cnc3c4cc(OC(C)C)c(OC)cc4ccc3c2cc1OC | – | – | inactive |
| CCOC(=O)c1c2ccc(/C=C/c3ccccc3)ccc-2c(C(=O)OCC)c1N | > 7.08 | > 7.08 | – |
| Cc1ccccc1NC(=O)O/N=C(\Cl)C(C)C | > 20 | 3.16 | – |
| CCc1oc2ccccc2c1C(=O)c1ccc(O)cc1 | > 324 | 53.7 | – |
| CC(=O)OC12c3ccccc3C1CCCC21OCCCO1 (stereo not drawn) | > 200 | > 200 | – |
| C=CCn1c2c(sc1=S)C(S)N=CN2 (stereo not drawn) | > 107 | 42.7 | – |
| CCCCN(CCCC)C(=O)C(=O)C(C(=O)C(=O)OC)c1nc2ccccc2o1 (stereo not drawn) | > 33.9 | > 33.9 | – |
